Measurements: ChEMBL document CHEMBL1157114, “Synthesis and structure-activity relationships of a series of (1H-pyrazol-4-yl)acetamide antagonists of the P2X7 receptor” (Bioorg Med Chem Lett, 2010)
pIC50: −log10 of the molar value. ≈ marks a conversion by molar mass, not a printed value.

What was measured:
[1] = molecular target: T1, P2X purinoceptor 7 (Homo sapiens) (UniProt Q99572); assay: Inhibition of human P2X7 receptor assessed as inhibition of ethidium bromide accumulation relative to control
T1 sequence (whole entry): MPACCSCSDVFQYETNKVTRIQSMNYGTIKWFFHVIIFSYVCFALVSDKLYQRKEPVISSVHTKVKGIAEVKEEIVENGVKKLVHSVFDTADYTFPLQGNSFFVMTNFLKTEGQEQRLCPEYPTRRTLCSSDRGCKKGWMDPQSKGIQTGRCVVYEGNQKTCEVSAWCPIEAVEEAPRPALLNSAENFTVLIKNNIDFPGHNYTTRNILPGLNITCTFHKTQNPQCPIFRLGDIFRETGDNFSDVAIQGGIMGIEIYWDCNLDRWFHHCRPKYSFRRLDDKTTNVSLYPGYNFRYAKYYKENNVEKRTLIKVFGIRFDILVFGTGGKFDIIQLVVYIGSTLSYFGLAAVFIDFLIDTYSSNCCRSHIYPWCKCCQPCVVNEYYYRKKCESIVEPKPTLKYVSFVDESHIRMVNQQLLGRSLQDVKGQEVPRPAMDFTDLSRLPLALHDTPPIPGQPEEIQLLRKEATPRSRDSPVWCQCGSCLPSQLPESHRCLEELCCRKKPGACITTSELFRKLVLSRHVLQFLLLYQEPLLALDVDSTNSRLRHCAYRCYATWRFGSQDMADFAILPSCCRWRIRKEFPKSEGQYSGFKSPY

P2X purinoceptor 7 [2] = molecular target: T2, P2X purinoceptor 7 (Homo sapiens, UniProt Q99572); assay: Inhibition of human P2X7 receptor assessed as inhibition of ethidium bromide accumulation
T2 sequence (Q99572 whole entry): T1 sequence (whole entry)

Rattus norvegicus = assay: Dose normalized AUC in rat blood at 3 mg/kg, po; type: ADME, organism-based; parameters: dose 3 mg/kg, route oral; details: in vivo
[3] = Aqueous solubility of the compound; type: physicochemical
[4] = Clearance in rat blood at 1 mg/kg, iv; type: ADME, organism-based; parameters: dose 1 mg/kg, route intravenous
P2X purinoceptor 7 [5] = molecular target: T3, P2X purinoceptor 7 (Rattus norvegicus, UniProt Q64663); assay: Inhibition of rat P2X7 receptor assessed as inhibition of ethidium bromide accumulation
T3 sequence (Q64663 whole entry): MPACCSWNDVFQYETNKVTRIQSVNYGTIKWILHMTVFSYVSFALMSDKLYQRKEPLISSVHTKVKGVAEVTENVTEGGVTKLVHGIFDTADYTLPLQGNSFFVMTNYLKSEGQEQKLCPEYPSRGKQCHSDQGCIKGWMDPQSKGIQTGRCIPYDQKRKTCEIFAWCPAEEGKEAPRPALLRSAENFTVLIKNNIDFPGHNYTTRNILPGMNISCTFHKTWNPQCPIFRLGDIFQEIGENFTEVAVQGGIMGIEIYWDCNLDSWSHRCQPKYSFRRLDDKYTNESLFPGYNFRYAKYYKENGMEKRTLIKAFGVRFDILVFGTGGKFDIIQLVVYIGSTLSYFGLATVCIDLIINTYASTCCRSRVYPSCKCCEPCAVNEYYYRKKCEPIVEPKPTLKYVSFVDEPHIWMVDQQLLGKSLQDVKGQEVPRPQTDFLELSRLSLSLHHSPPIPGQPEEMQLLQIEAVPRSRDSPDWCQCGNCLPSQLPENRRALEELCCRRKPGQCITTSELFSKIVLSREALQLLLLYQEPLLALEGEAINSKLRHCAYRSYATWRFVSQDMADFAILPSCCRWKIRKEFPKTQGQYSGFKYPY

[6] = Tmax in rat blood at 3 mg/kg, po; type: ADME, organism-based; parameters: dose 3 mg/kg, route oral
[7] = Oral bioavailability in rat blood at 3 mg/kg, po; type: ADME, organism-based
[8] = Cmax in rat blood at 3 mg/kg, po; type: ADME, organism-based; parameters: dose 3 mg/kg, route oral
[9] = Half life in rat blood at 1 mg/kg, iv; type: ADME, organism-based; parameters: dose 1 mg/kg, route intravenous
[10] = Volume of distribution at steady state in rat blood at 1 mg/kg, iv; type: ADME, organism-based; parameters: dose 1 mg/kg, route intravenous; details: read-out: Vdss

Compound	Imax [1] [%]	pIC50 (P2X purinoceptor 7 [2])	other results
Cc1nn(C)c(C)c1CC(=O)NCc1ccc(F)cc1Cl	100	6.80	
Cc1nn(CCN(C)C)c(C)c1CC(=O)NCc1ccc(F)cc1Cl	100	6.50	
Cc1n[nH]c(C)c1CC(=O)NCc1ccc(F)cc1Cl	100	7.70	AUC (Rattus norvegicus): 58 kg·min/L; solubility [3]: 732 µg/mL (≈ 2480 µM); clearance [4]: 15 mL/min/kg; pIC50 (P2X purinoceptor 7 [5]): 6.80; Tmax [6]: 1 h; bioavailability [7]: 90%; Cmax [8]: 2920 nM; half-life [9]: 1.7 h; Vd [10]: 1.6 L/kg
Cc1nn(CCO)c(C)c1CC(=O)NCc1ccc(F)cc1Cl	100	6.70	
Cc1c(CC(=O)NCc2ccc(F)cc2Cl)cnn1-c1ccccc1	100	6.80	
COc1ccccc1CNC(=O)Cc1c(C)nn(-c2ccccc2)c1C	100	< 6.00	
Cc1nn(-c2ccccc2)c(C)c1CNC(=O)Cc1ccc(F)cc1Cl	100	< 6.00	
Cc1nn(Cc2cccnc2)c(C)c1CC(=O)NCc1ccc(F)cc1Cl	100	6.90	
Cc1nn(-c2ccccc2)c(C)c1CC(=O)NCc1cc(Cl)cc(Cl)c1	100	< 6.20	
Cc1nn(-c2ncccn2)c(C)c1CC(=O)NCc1ccc(F)cc1Cl	100	7.30	
COc1ccc(-n2nc(C)c(CC(=O)NCc3ccc(F)cc3Cl)c2C)cc1	100	7.00	
Cc1cccnc1CNC(=O)Cc1c(C)nn(-c2ccccc2)c1C	100	< 6.00	
Cc1nn(-c2ccccc2)c(C)c1CC(=O)NCc1ccc(Cl)cc1Cl	100	7.10	
Cc1nc(-c2ccccc2)sc1CC(=O)NCc1ccc(F)cc1Cl	100	< 6.00	
Cc1nn(-c2ccccc2)c(C)c1CC(=O)NCc1ccc(F)cc1Cl	100	7.40	solubility [3]: 110 µg/mL (≈ 296 µM); pIC50 (P2X purinoceptor 7 [5]): 7.00
Cc1nn(-c2ccccc2)c(C)c1CC(=O)NC1CCCCCC1	100	6.80	

Compound	Imax [1] [%]	pIC50 (P2X purinoceptor 7 [2])	other results
Cc1nn(-c2ccccc2)cc1CC(=O)NCc1ccc(F)cc1Cl	100	6.80	
O=C(CN1CC(=O)N(c2ccccc2)C1=O)NCc1ccc(F)cc1Cl	100		
Cc1sc(-c2ccccc2)nc1CC(=O)NCc1ccc(F)cc1Cl	100	< 6.00	
Cc1nn(-c2ccc(C(N)=O)cc2)c(C)c1CC(=O)NCc1ccc(F)cc1Cl	100	8.00	
Cc1nn(Cc2ccccc2)c(C)c1CC(=O)NCc1ccc(F)cc1Cl	100	6.50	
Cc1nn(-c2ccc(Cl)cc2)c(C)c1CC(=O)NCc1ccc(F)cc1Cl	100	7.20	
Cc1nn(-c2ccccc2)c(C)c1CC(=O)NC(C)(C)c1ccccc1	100	6.90	
Cc1nn(-c2ccccc2)c(C)c1C(=O)NCc1ccc(F)cc1Cl	100	< 6.00	
Cc1nn(-c2ccccc2)c(C)c1CC(=O)NCc1cccc(Cl)c1Cl	100	7.60	
Cc1nn(-c2ccccc2)c(C)c1NC(=O)NCc1ccc(F)cc1Cl	100	6.60	
Cc1nc(-c2ccccc2)n(C)c1CC(=O)NCc1ccc(F)cc1Cl	100	7.30	
Cc1oc(-c2ccccc2)nc1CC(=O)NCc1ccc(F)cc1Cl	100	< 6.00	
Cc1nn(-c2ccccc2)c(C)c1CC(=O)N(C)Cc1ccc(F)cc1Cl	100	< 6.00	
Cc1nn(-c2ccccc2)c(C)c1Cc1nnc(Cc2ccc(Cl)cc2Cl)o1	100	5.90	
Cc1nn(-c2ccccc2)c(C)c1CC(=O)NCc1ccccc1	100	< 6.00	
Cc1nn(-c2ccccc2)c(C)c1CC(=O)NCc1ccccc1Cl	100	6.00	
